Where two headings read alike, the source gives them in different places.
Columns and labels:
[1] = target: T1, MAP4K2 (GCK) (Homo sapiens, UniProt Q12851); experiment: Z'-LYTE SelectScreen biochemical kinase assay MAP4K2 (GCK)
T1 sequence (Q12851 1-820): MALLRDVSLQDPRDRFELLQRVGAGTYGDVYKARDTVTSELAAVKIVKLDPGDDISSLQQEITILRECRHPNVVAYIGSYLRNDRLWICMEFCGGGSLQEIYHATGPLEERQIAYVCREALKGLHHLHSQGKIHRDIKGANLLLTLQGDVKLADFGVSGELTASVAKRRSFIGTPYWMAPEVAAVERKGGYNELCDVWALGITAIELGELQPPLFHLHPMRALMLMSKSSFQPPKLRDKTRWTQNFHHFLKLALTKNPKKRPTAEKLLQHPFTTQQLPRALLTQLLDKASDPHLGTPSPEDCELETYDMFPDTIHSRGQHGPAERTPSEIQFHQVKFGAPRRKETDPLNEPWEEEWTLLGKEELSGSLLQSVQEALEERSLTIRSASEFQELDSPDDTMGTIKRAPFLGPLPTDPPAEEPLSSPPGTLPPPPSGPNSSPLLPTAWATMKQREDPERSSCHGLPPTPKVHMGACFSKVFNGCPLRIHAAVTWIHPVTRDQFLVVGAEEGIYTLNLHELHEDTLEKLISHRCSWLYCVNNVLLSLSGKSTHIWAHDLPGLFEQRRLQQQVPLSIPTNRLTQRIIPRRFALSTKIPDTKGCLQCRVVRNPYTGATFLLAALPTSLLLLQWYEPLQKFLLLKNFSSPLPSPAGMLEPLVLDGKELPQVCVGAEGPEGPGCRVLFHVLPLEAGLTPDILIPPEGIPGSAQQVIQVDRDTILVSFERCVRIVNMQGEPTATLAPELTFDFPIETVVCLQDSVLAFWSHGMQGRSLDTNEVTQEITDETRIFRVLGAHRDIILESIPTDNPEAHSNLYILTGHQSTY
From the text: (§1) Thermo Fisher Scientific SelectScreen™ Biochemical Kinase Profiling Service Z′-LYTE™ Screening Protocol and Assay Conditions Assay Theory
(§2) The […] biochemical assay employs a fluorescence-based, coupled-enzyme format and is based on the differential sensitivity of phosphorylated and non-phosphorylated peptides to proteolytic cleavage. The peptide substrate is labeled with two fluorophores—one at each end—that make up a FRET pair. In the primary reaction, the kinase transfers the gamma-phosphate of ATP to a single tyrosine, serine or threonine residue in a synthetic FRET-peptide. In the secondary reaction, a site-specific protease recognizes and cleaves non-phosphorylated FRET-peptides. Phosphorylation of FRET-peptides suppresses cleavage by the Development Reagent. Cleavage disrupts FRET between the donor (i.e., coumarin) and acceptor (i.e., fluorescein) fluorophores on the FRET-peptide, whereas uncleaved, phosphorylated FRET-peptides maintain FRET. A ratiometric method, which calculates the ratio (Emission Ratio=Coumarin emission (445 nm)/Fluorescein emission (520 nm)) of donor emission to acceptor emission after excitation of the donor fluorophore at 400 nm, is used to quantitate reaction progress, as shown in the equation below. A significant benefit of this ratiometric method for quantitating reaction progress is the elimination of well-to-well variations in FRET-peptide concentration and signal intensities. As a result, the assay yields very high Z′-factor values (>0.7) at a low percent phosphorylation. Both cleaved and uncleaved FRET-peptides contribute to the fluorescence signals and therefore to the Emission Ratio. The extent of phosphorylation of the FRET-peptide can be calculated from the Emission Ratio. The Emission Ratio will remain low if the FRET-peptide is phosphorylated (i.e., no kinase inhibition) and will be high if the FRET-peptide is non-phosphorylated (i.e., kinase inhibition).
(§3) The Test Compounds are screened in 1% DMSO (final) in the well. For 10 point titrations, 3-fold serial dilutions are conducted from the starting concentration of the customer's choosing.
(§4) All Peptide/Kinase Mixtures are diluted to a 2× working concentration in the appropriate Kinase Buffer (see section Kinase Specific Assay Conditions for a complete description).
(§5) All ATP Solutions are diluted to a 4× working concentration in Kinase Buffer (50 mM HEPES pH 7.5, 0.01% BRIJ-35, 10 mM MgCl2, 1 mM EGTA). ATP Km apparent is previously determined using a Z″-LYTE assay.
(§6) The Development Reagent is diluted in Development Buffer (see section Kinase-Specific Assay Conditions—Direct and Cascade for a complete description).
(§7) Bar-coded Corning, low volume NBS, black 384-well plate (Corning Cat. #4514) • 1. 100 nL—100× Test Compound in 100% DMSO • 2. 2.4 μL—Kinase buffer • 3. 5 μL—2× Peptide/Kinase Mixture • 4. 2.5 μL—4×ATP Solution • 5. 30—second plate shake • 6. 60—minute Kinase Reaction incubation at room temperature • 7. 5 μL—Development Reagent Solution • 8. 30—second plate shake • 9. 60—minute Development Reaction incubation at room temperature • 10. Read on fluorescence plate reader and analyze the data Z′-LYTE Assay Controls
(§8) SelectScreen Kinase Profiling Service uses XLfit from IDBS. The dose response curve is curve fit to model number 205 (sigmoidal dose-response model).
The 2×MAP4K2 (GCK)/Ser/Thr 07 mixture is prepared in 50 mM HEPES pH 7.5, 0.01% BRIJ-35, 10 mM MgCl2, 1 mM EGTA. The final 10 μL Kinase Reaction consists of 0.11-3 ng MAP4K2 (GCK) and 2 μM Ser/Thr 07 in 50 mM HEPES pH 7.5, 0.01% BRIJ-35, 10 mM MgCl2, 1 mM EGTA. After the 1 hour Kinase Reaction incubation, 5 μL of a 1:45000 dilution of Development Reagent A is added.

[2] = target: FGFR2 (Homo sapiens, UniProt P21802); experiment: Z'-LYTE SelectScreen biochemical kinase assay FGFR2
From the text: as §1, §2, §3, §4, §5, §6, §7, §8
The 2×FGFR2/Tyr 04 mixture is prepared in 50 mM HEPES pH 7.5, 0.01% BRIJ-35, 10 mM MgCl2, 4 mM MnCl2, 1 mM EGTA, 2 mM DTT. The final 10 μL Kinase Reaction consists of 0.19-1.99 ng FGFR2 and 2 μM Tyr 04 in 50 mM HEPES pH 7.5, 0.01% BRIJ-35, 10 mM MgCl2, 2 mM MnCl2, 1 mM EGTA, 1 mM DTT. After the 1 hour Kinase Reaction incubation, 5 μL of a 1:64 dilution of Development Reagent B is added.

[3] = 10 μmolar compound concentration, ATP at Km app, read-out: MAP4K2 (GCK) inhibition
[4] = read-out: % Inhibition mean MAP4K2 (GCK)
[5] = 10 μmolar compound concentration, ATP at Km app, read-out: FGFR2 inhibition
[6] = read-out: % Inhibition mean FGFR2

FGFR2, sequence (P21802 22-821): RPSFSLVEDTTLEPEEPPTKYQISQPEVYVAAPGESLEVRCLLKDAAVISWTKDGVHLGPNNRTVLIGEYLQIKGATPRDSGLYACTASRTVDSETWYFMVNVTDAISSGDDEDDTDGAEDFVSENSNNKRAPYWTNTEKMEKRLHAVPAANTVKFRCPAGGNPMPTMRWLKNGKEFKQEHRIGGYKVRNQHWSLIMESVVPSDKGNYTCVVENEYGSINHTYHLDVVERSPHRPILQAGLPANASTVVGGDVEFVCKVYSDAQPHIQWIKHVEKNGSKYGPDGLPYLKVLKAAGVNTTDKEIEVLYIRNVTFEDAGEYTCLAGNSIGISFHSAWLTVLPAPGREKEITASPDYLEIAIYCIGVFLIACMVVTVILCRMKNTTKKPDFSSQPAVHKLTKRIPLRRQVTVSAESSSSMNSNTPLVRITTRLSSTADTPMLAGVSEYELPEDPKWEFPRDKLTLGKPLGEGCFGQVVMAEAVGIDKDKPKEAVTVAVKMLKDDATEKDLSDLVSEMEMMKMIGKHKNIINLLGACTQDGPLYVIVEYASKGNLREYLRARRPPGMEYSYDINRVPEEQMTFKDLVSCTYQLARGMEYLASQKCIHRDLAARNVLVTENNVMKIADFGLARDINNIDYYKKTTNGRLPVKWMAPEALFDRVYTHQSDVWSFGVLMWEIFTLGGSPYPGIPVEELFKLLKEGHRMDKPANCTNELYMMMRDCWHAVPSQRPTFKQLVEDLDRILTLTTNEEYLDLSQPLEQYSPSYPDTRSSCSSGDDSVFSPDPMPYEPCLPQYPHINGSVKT

inhibition at 10 µM [1, 3]	inhibition at 10 µM [1, 4]	inhibition at 10 µM [2, 5]	inhibition at 10 µM [2, 6]	inhibition at 10 µM ([1]; read-out: % Inhibition mean)	inhibition at 10 µM ([2]; read-out: % Inhibition mean)	SMILES
< 40%	9%	< 40%	1%			CCn1ncc2c1CCC(Nc1nc3c(-c4cccnc4OC)cccn3n1)C2 (stereo not drawn) [Example 69, (1-Ethyl-4,5,6,7-tetrahydro-1H-indazol-5-yl)-[8-(2-methoxy-pyridin-3-yl)-[1,2,4]triazolo[1,5-a]pyridine-2-yl]-amine]
< 40%	7%	< 40%	12%			CCn1ncc2c1CCC(Nc1nc3c(-c4cncc(OC)c4)cccn3n1)C2 (stereo not drawn) [Example 70, (1-Ethyl-4,5,6,7-tetrahydro-1H-indazol-5-yl)-[8-(5-methoxy-pyridin-3-yl)-[1,2,4]triazolo[1,5-a]pyridine-2-yl]-amine]
< 40%	27%	< 40%	25%			CCc1nn(C)c2c1CCC(Nc1nc3c(-c4ccc(F)cc4C)cccn3n1)C2 (stereo not drawn) [Example 54, (3-Ethyl-1-methyl-4,5,6,7-tetrahydro-1H-indazol-6-yl)-[8-(4-fluoro-2-methyl-phenyl)-[1,2,4]triazolo[1,5-a]pyridine-2-yl]-amine]
< 40%	26%	< 40%	22%			Cc1cc(F)ccc1-c1cccn2nc(NC3CCc4c(cnn4C(C)C)C3)nc12 (stereo not drawn) [Example 44, [8-(4-fluoro-2-methyl-phenyl)-[1,2,4]triazolo[1,5-a]pyridine-2-yl]-(1-isopropyl-4,5,6,7-tetrahydro-1H-indazol-5-yl)-amine]
< 40%	14%	< 40%	16%			CCn1ncc2c1CCC(Nc1nc3c(-c4cccnc4)cccn3n1)C2 (stereo not drawn) [Example 63, (1-Ethyl-4,5,6,7-tetrahydro-1H-indazol-5-yl)-(8-pyridin-3-yl-[1,2,4]triazolo[1,5-a]pyridine-2-yl)-amine]
< 40%	28%	< 40%	28%			CCn1ncc2c1CCC(Nc1nc3c(-c4cnccc4OC)cccn3n1)C2 (stereo not drawn) [Example 68, (1-Ethyl-4,5,6,7-tetrahydro-1H-indazol-5-yl)-[8-(4-methoxy-pyridin-3-yl)-[1,2,4]triazolo[1,5-a]pyridine-2-yl]-amine]
< 40%	24%	< 40%	16%			Cc1cc(F)ccc1-c1cccn2nc(NC3CCc4c(cnn4CC(C)C)C3)nc12 (stereo not drawn) [Example 45, [8-(4-fluoro-2-methyl-phenyl)-[1,2,4]triazolo[1,5-a]pyridine-2-yl]-(1-isobutyl-4,5,6,7-tetrahydro-1H-indazol-5-yl)-amine]
< 40%	3%	< 40%	12%			CCn1ncc2c1CC[C@@H](Nc1nc3c(-c4ccc(F)c(Cl)c4)cccn3n1)C2 [Example R-61, (R)-[8-(3-Chloro-4-fluoro-phenyl)-[1,2,4]triazolo[1,5-a]pyridine-2-yl]-(1-ethyl-4,5,6,7-tetrahydro-1H-indazol-5-yl)-amine]
< 40%	16%	< 40%	19%			CCn1ncc2c1CCC(Nc1nc3c(-c4ccccc4C)cccn3n1)C2 (stereo not drawn) [Example 56, (1-Ethyl-4,5,6,7-tetrahydro-1H-indazol-5-yl)-[8-(2-methyl-phenyl)-[1,2,4]triazolo[1,5-a]pyridine-2-yl]-amine]
< 40%	9%	< 40%	14%			CCCn1ncc2c1CCC(Nc1nc3c(-c4ccc(F)cc4C)cccn3n1)C2 (stereo not drawn) [Example 43, [8-(4-fluoro-2-methyl-phenyl)-[1,2,4]triazolo[1,5-a]pyridine-2-yl]-(1-propyl-4,5,6,7-tetrahydro-1H-indazol-5-yl)-amine]
< 40%	16%	< 40%	22%			CCn1nc(Cl)c2c1CCC(Nc1nc3c(-c4ccc(F)cc4C)cccn3n1)C2 (stereo not drawn) [Example 48, (3-Chloro-1-ethyl-4,5,6,7-tetrahydro-1H-indazol-5-yl)-[8-(4-fluoro-2-methyl-phenyl)-[1,2,4]triazolo[1,5-a]pyridine-2-yl]-amine]
> 80%		> 80%		98%	102%	CC1(C)C(=O)Nc2ccc(Nc3nc4c(-c5cccc(F)c5)cccn4n3)cc21 [Cpd. 263 in WO09155551, reference compound]
< 40%	17%	< 40%	31%			CCn1ncc2c1C(C)CC(Nc1nc3c(-c4cc(F)c(F)c(F)c4)cccn3n1)C2 (stereo not drawn) [Example 49, (1-Ethyl-7-methyl-4,5,6,7-tetrahydro-1H-indazol-5-yl)-[8-(3,4,5-trifluoro-phenyl)-[1,2,4]triazolo[1,5-a]pyridine-2-yl]-amine]
< 40%	22%	< 40%	28%			CCn1nnc2c1CCC(Nc1nc3c(-c4ccc(F)cc4C)cccn3n1)C2 (stereo not drawn) [Example 51, (1-Ethyl-4,5,6,7-tetrahydro-1H-benzotriazol-5-yl)-[8-(4-fluoro-2-methyl-phenyl)-[1,2,4]triazolo[1,5-a]pyridine-2-yl]-amine]
< 40%	19%	< 40%	26%			CCCCn1ncc2c1CCC(Nc1nc3c(-c4ccc(F)cc4C)cccn3n1)C2 (stereo not drawn) [Example 46, [8-(4-fluoro-2-methyl-phenyl)-[1,2,4]triazolo[1,5-a]pyridine-2-yl]-(1-butyl-4,5,6,7-tetrahydro-1H-indazol-5-yl)-amine]

Source: patent US11339161B2, “Triazolo pyridines as modulators of gamma-secretase” (Boehringer Ingelheim International GmbH, priority 2017, dated 2022)
